Test results from PubChem BioAssay (NCI).
“And” between values parts separate entries of the source, which are not always exact repeats. Identical values can stand only once.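 96-well plates; 48 h exposure; 5 concentrations. Endpoints by linear interpolation between flanking doses. Not reached: highest tested concentration assigned. Abbreviation: GI50, concentration required for 50% inhibition of growth. The concentration for full growth arrest is given as TGI.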

How the values were obtained:
Assay in all cases: NCI anticancer screen, dose series, 48 h
[1] = tested on: HOP-62 NSCLC
[2] = tested on: M14 melanoma
[3] = tested on: EKVX NSCLC
[4] = tested on: T-47D breast
[5] = tested on: UACC-257 melanoma
[6] = tested on: SK-OV-3 ovarian
[7] = tested on: A549 NSCLC
[8] = tested on: SK-MEL-5 melanoma
[9] = tested on: SN12C renal
[10] = tested on: LOX IMVI melanoma

Row | SMILES | GI50 [1] [µM] | TGI [1] | GI50 [2] [µM] | TGI [2] [µM] | GI50 [3] [µM] | TGI [3] [µM] | GI50 [4] [µM] | TGI [4] [µM] | GI50 [5] [µM] | TGI [5] [µM] | GI50 [6] [µM] | TGI [6] [µM] | GI50 [7] [µM] | TGI [7] [µM] | GI50 [8] [µM] | TGI [8] | GI50 [9] [µM] | TGI [9] [µM] | GI50 [10] [µM] | TGI [10] [µM]
1 | C(=Nc1nc(SCc2ccccc2)nc2[nH]ncc12)c1cccs1 | > 100 | > 100 µM | 34.7 | > 100 | 34.5 | > 100 | 21.9 | 52.8 | 53.7 | > 100 | > 100 | > 100 | 60 | > 100 | 2.77 | 19.8 µM | > 100 | > 100 | 48.6 | > 100
2 | Cc1noc(NC(=O)Nc2ccccc2F)c1C#N |  | > 100 µM |  | > 42.6 |  | 25.1 |  | > 77.4 |  | > 51 |  | > 100 |  | > 52.1 |  | > 100 µM |  | > 48 |  | > 100
3 | OCCCCC#Cc1ccccc1C#Cc1cccc(C(F)(F)F)c1 | 16.9 | 33.3 µM | 21.5 | 50.5 | 17.9 | 34.7 | 22 | 44.5 | 16.7 | 31.8 | 19.7 | 35.3 | 15.1 | 28.6 | 17.8 | 32.7 µM | 18.9 | 33 | 17.5 | 31.8
4 | N#CC(C#N)=C/C=C(\Sc1ccc(Cl)cc1)c1ccc(F)cc1 | 2.54 | 16 µM | 0.729 | 2.61 | 15.7 | 52.5 | 13.3 | > 71.6 | 6.88 | 14.7 | 13.5 | 40.7 | 8.61 | 32.3 | 1.76 | 6.33 µM | 0.986 | 7.26 | 0.403 | 
5 | OCC1CC[N-]CC1.OCC1CC[N-]CC1.[Cl][Pt+2]([Cl])([Cl])[Cl] | 33.1 |  | 22.2 | 65 | 30.7 |  | 15.2 | 58.1 | 31 |  | 36.9 |  | 52.7 |  | 34.5 |  | 30.8 |  | 11.4 | 
6 | NC(N)=NCCCC(NCc1c2ccccc2nc2ccccc12)C(=O)O (stereo not drawn) |  | > 100 µM |  | > 100 |  | > 100 |  | > 100 |  | > 88.6 |  | > 100 |  | > 100 |  | > 62.2 µM |  | > 100 |  | 97.9
7 | CC(=O)NC1C(O[C@H]2C[C@H]3[C@@H]4CC=C5C[C@@H](O)CC[C@]5(C)[C@H]4CC[C@]3(C)[C@H]2[C@H](C)C(=O)CCC(C)C)OCC(O)C1O (stereo partly drawn) | 2.18 | 8.31 µM | 0.732 | 1.57 | 1.97 | 9.37 | 2.28 | 30.9 | 1.4 | 3.55 | 2.01 | 8.39 | 5.45 | 15.3 | 1.85 | 6.49 µM | 8.58 | 26.6 | 1.45 | 5.79
8 | O=C(c1cccs1)c1c(C(F)(F)F)n([O-])c2cc(Cl)c(Cl)cc2[n+]1=O | 1.77 | 3.46 µM | 0.906 | 2.45 | 2.11 | 4.04 | 2.18 | 4.94 | 1.86 | 3.85 | 2.18 | 4.04 | 2.72 | 5.85 | 1.28 | 2.65 µM | 1.31 | 2.83 | 0.0703 | 0.493
9 | COc1ccc(C(O)c2cc3c(N)c(C(=O)Nc4cccc5ccccc45)sc3nc2C)cc1 (stereo not drawn) | 1.27 | > 100 µM | 0.307 | > 37.7 | 0.486 | > 100 | > 100 | > 100 |  | > 32.5 | 0.643 | > 100 | 0.381 | > 100 | 0.327 | 1.25 µM | 0.629 | > 46.8 | 0.444 | > 39.9
10 | CCSCC1CC(O)(c2ccccc2)C(c2ccccc2)C(c2ccc(F)cc2)O1 (stereo not drawn) | 2.08 | 4.52 µM | 1.74 | 3.23 | 1.82 | 6.13 | 1.56 | 4.8 | 2.1 | 4.88 | 2.7 | 9.15 | 2.15 | 6.35 | 1.47 | 2.82 µM | 1.89 | 5.25 | 1.61 | 3
11 | ClCCOCCn1cnc2c(Cl)nc(Cl)nc21 | 15.7 | 30.5 µM | 13.4 | 27.9 | 12.5 | 27.7 | 14.2 | 36.2 | 14.1 | 28.5 | 16.2 | 29.8 | 21.6 | 61.9 | 12.5 | 25.5 µM | 16.2 | 31.8 | 5.96 | 20.1
12 | CCN(CC)c1ccc2nc3ccc(=[N+](CC)CC)cc-3oc2c1 | 0.93 | 32.2 µM | 0.0903 | 1.71 | 0.292 | > 40.7 | 0.105 | 1.18 | 0.0457 | 0.654 | 0.671 | 4.75 | 0.826 | > 100 | 0.162 | 1.17 µM | 0.153 | 15.2 | 0.11 | 1.59
13 | CCCCCC(=O)O[C@]1(C(C)=O)CCC2C3CCC4=CC(=O)CC[C@]4(C)C3CC[C@@]21C (stereo partly drawn) | 3.33 | 10.9 µM | 2.55 | 6.85 | 2.91 | 20.2 | 3.77 | 25.7 | 3.15 | 12.6 | 3.25 | 13.3 | 2.78 | 15.9 | 1.43 | 2.77 µM | 1.6 | 3.37 | 1.67 | 3.14
14 | Fc1ccc(NC(c2ccc(F)cc2)C2CCN(CCCCc3ccccc3)CC2)cc1 (stereo not drawn) | 1.45 | 3 µM | 1.59 | 3.2 | 1.7 | 4.42 | 1.65 | 3.62 | 1.97 | 3.79 | 1.86 | 3.94 | 1.91 | 3.73 | 1.63 | 3.1 µM | 1.77 | 3.37 | 1.55 | 2.89
15 | COCCN(CCOC)c1nc(-c2ccccc2)nc2ccccc12 | 22.4 | 64.3 µM | 13.9 | 56.6 | 38.8 | > 100 | 26.9 | > 100 | 17.7 | 36.6 | 31.9 | > 100 | 30.1 | > 100 | 15.8 | 32.9 µM | 29.1 | > 100 | 34.7 | > 100
16 | C=CCN(CC=C)C(=O)c1cc(C)nc2c1c(=O)n(-c1ccccc1)c(=O)n2CCCN1CCN(c2ccccc2OC)CC1 | > 50 | > 50 µM | > 50 | > 50 | > 50 | > 50 | > 50 | > 50 | > 50 | > 50 | > 50 | > 50 | > 50 | > 50 | > 50 | > 50 µM | > 50 | > 50 | > 50 | > 50
17 | Cc1cc(Br)c(NC(=O)c2c(-c3c(Cl)cccc3Cl)noc2C)c(Br)c1 | 30.8 | > 100 µM | > 100 | > 100 | > 100 | > 100 | > 100 | > 100 | > 100 | > 100 | > 100 | > 100 | > 100 | > 100 | > 100 | > 100 µM | > 100 | > 100 | > 100 | > 100
18 | Cc1cccc(Cn2cc(CO)c3cnccc32)c1 | > 100 | > 100 µM | > 100 | > 100 | 20.9 | > 100 | 47.2 | > 100 | 44.2 | > 100 | > 100 | > 100 | > 100 | > 100 | 24.1 | > 100 µM | > 100 | > 100 | 67.3 | > 100
19 | COc1ccc(/C=C2\CCC/C(=C\c3ccc(OC)c(OC)c3)C2=O)cc1OC | 4.59 | > 32.5 µM | 1.9 | > 32.5 | 14 | > 32.5 | 10.2 | > 32.5 | 4.65 | > 32.5 | 12.1 | > 32.5 | 1.79 | > 32.5 | 1.88 | > 32.5 µM | 8.79 | > 32.5 | 1.15 | 9.02
20 | COC12C(COC(=O)NCCO)C3=C(C(=O)C(C)=C(N)C3=O)N1CC1NC12 (stereo not drawn) | 28.4 | 74.7 µM and 139 µM | 49.9 | > 264 |  | > 264 |  | > 264 | 79.1 | 238 | 100 | > 264 | 29.7 | > 264 | 23.9 | 45 µM and 58.2 µM | 34.4 | > 264 | 22.2 | 64.7
21 | O=C(Nc1ccc(OC(F)(F)Cl)cc1)c1cnc(N2CC[C@@H](O)C2)c(-c2ccn[nH]2)c1 | 11.4 | 28.4 µM | 4.52 | 18.3 | 8.63 | 28.7 | 6.12 | 46.7 | 10.5 | 22.6 | 20.5 | 44.9 | 10.5 | 33.6 | 10.7 | 22.7 µM | 12.6 | 28.9 | 4.84 | 18.7
22 | [O]=[V]([OH])([OH])[OH] | > 100 | > 100 µM | > 100 | > 100 | > 100 | > 100 | > 100 | > 100 | > 100 | > 100 | > 100 | > 100 | > 100 | > 100 | > 100 | > 100 µM | > 100 | > 100 | > 100 | > 100
